Reference: paper PMC7508583, “Discovery and Preclinical Development of Antigiardiasis Fumagillol Derivatives” (Antimicrobial Agents and Chemotherapy, 2020)
Values after ≈ are worked out from the molar mass of the structure shown.

Legend:
[1] = system: G. lamblia GS trophozoites; experiment: Trophozoite viability MLC determination; format: cell-based, Giardia lamblia
Procedure: The inhibition of metabolism enables the organism to resume proliferation once treatment is completed. To discriminate between the lethality of the promising compounds and the induction of metabolic inactivity by the promising compounds, the minimum lethal concentration (MLC) values were determined by treating the trophozoites with the test compounds for 3 days and transferring the resulting cultures to medium lacking the compounds for 3 days of proliferation. This assay was described previously for G. lamblia ([18]) and was adapted to E. histolytica in the current study.
Trophozoites of G. lamblia isolates WB and GS were grown anaerobically in borosilicate glass screw-cap culture tubes (Fisher Scientific) at pH 7.0 in Keister’s modified TYI-S-33 medium (ATCC). The medium was supplemented with 10% heat-inactivated bovine serum (Sigma-Aldrich) and 0.05% bovine bile (Sigma-Aldrich). To attain low-oxygen-tension conditions, the tubes were filled to 85% to 90% of their total volume capacity and incubated without shaking at 37°C. Subcultures (2 × 10^5 trophozoites per tube) were made three times a week. Detachment of trophozoites for inoculation was achieved by chilling the cultures on ice for 20 min. Culturing and detachment of metronidazole-resistant G. lamblia assemblage A 713M3 and assemblage B 1279-M1 trophozoites followed the same protocol, except that the growth medium was supplemented with metronidazole, with the concentration gradually being increased to 10 μM.
Compounds were prepared by 2-fold serial dilutions in growth medium containing 0.5% DMSO (diluted from a starting concentration of 1 μM to 12 concentrations for all compounds except metronidazole, fumagillol, and TNP-470, which were diluted from 100 μM), and 100 μl/well was transferred in duplicate to the 96-well culture plate. Ten microliters of G. lamblia trophozoites was plated at a density of 10,000 cells/well. The plates were incubated under anaerobic condition in a BD GasPak EZ container system (BD Diagnostics) at 37°C for 72 h and surveyed visually under a microscope to check trophozoite survival, mobility, and attachment. […] The tubes were incubated under anaerobic condition for 3 days at 37°C and checked under a microscope. The MLC value was the concentration in the tube with the lowest compound concentration without any live organism.

[2] = Plasma pharmacokinetics in mice; format: in vivo, C57BL/6 female mice
Procedure: The mean plasma concentration-time profiles for intravenous (i.v.) and per os (p.o.) administration in C57BL/6 female mice are shown in Fig. 6A. […] In contrast, at the earliest time point (15 min) following oral administration of a 6.6-mg/kg bolus, the plasma concentration reached a maximum of ∼92 ng/ml and then decreased gradually and remained detectable for 8 h.
Plasma intravenous (i.v.) and per os (p.o.) pharmacokinetic studies were performed in C57BL/6 female mice, using two groups of three mice each. […] The second group of mice received a 6.6-mg/kg dose orally; this dose matched the therapeutic dose that cured giardiasis with no remaining proliferating trophozoites. Blood samples were withdrawn at 5, 15, and 30 min and 1, 2, 4, 8, and 24 h after administration for the i.v. treated mouse group and at the same time intervals but beginning at 15 min for the p.o. treated mouse group. The samples were extracted with 60% water-diluted acetonitrile and were frozen at −20°C until analysis.
Blank and test compound-containing samples were thawed, vortexed to ensure complete mixing of the contents, and centrifuged at 4,000 rpm at 20°C for 10 min. The supernatants were transferred into autoinjector vials. The vials were loaded, and 30-μl sample volumes were injected onto an API 4000 LC-MS/MS system. The Agilent XDB C18 column was used for the liquid chromatographic step at a flow rate of 0.6 ml/min. The mass spectrometer was operated in the electrospray ionization-positive mode. Curcumin served as an internal standard. The chromatograms were evaluated using Analyst (version 1.6.3) software.

[3] = Single-dose acute toxicity (MTD) and histopathology; settings: in vivo
Procedure: The tissues of three surviving mice were analyzed along with the tissues of three animals treated with the vehicle alone. […] Based on these findings, the maximum tolerated dose (MTD) value was determined to be 1,500 mg/kg.
The maximum tolerated dose (MTD) determination was performed using 8- to 10-week-old C57BL/6 female mice in five groups of 6 animals each. The mice were acclimated to the study room for a week. Animals were randomized by body weight prior to being assigned to dosage groups at the outset of the study. […] Following an up-down dosing strategy, the clinical signs and body weights of the animals in a study group were evaluated daily for 5 days before escalating or reducing the dose administered to the next group, as appropriate. The clinical observations included posture, vocalization, ease of handling, lacrimation, chromodacryorrhea, salivation, coat appearance, rearing frequency, transfer arousal, piloerection, motor movements, tail pinch, and diarrhea.
The histopathology examination included 3 mice that survived treatment with the 2,000-mg/kg dose and 3 mice that received the vehicle alone. Brain, heart, lung, spleen, and liver tissues were examined. Formalin-fixed tissues were embedded in paraffin to produce 4-μm-thick sections. The paraffin wax was removed, and the tissues were stained with Gill’s hematoxylin for 5 to 10 min. The samples were rinsed in tap water, followed by ammonia water, and stained with eosin Y for 5 min. The hematoxylin-eosin-stained tissues were dehydrated and mounted for light microscopic examination.

[4] = Accelerated temperature/humidity degradation test; format: physicochemical; settings: day 28, 37°C; for Mean ± SE degradation at 4 wk and 37°C, 75% humidity: 75% relative humidity; for Mean ± SE degradation at 4 wk and 37°C, uncontrolled humidity: uncontrolled relative humidity
Procedure: Accelerated temperature tests were performed at 37°C and under 75% relative humidity or laboratory uncontrolled relative humidity, comparing compounds 3 and 9 to fumagillin. Sanofi reported previously that fumagillin degraded from 98% to 85% purity when stored at 40°C for 2 weeks at ambient humidity ([42]).
For accelerated temperature degradation tests at 75% relative humidity and at laboratory uncontrolled relative humidity, fumagillin and compounds 3 and 9 were incubated at 37°C under either controlled or uncontrolled humidity, and the samples were analyzed by HPLC every week for 4 weeks. Measurements were made in duplicate. Area-under-the-curve values were calculated to derive the percentage of compound remaining. For pH degradation, the compounds were dissolved in DMSO and mixed with pH 3.0 buffer. The samples were incubated at 25°C for up to 48 h. Samples were analyzed by HPLC every 2 h for the first 8 h and then after 24 and 48 h.

[5] = system: G. lamblia GS trophozoites; parameters: method as in PMID 21078930, PMID 25267663; settings: read-out: IC50 against assemblage B GS strain; cited from earlier work
[6] = system: G. lamblia WB trophozoites; parameters: method as in PMID 21078930, PMID 25267663; settings: read-out: IC50 against assemblage A WB strain; cited from earlier work
[7] = system: G. lamblia GS trophozoites; parameters: method as in PMID 25267663; settings: proliferation assay; cited from earlier work

COC1C(OC(=O)NC(=O)CN2CCOCC2)CCC2(CO2)C1C1(C)OC1CC=C(C)C (centres unmarked) [Compound 3]
fold improved MLCs compared with the MLC of fumagillin [1]: ~100 fold

CO[C@@H]1[C@H](OC(=O)Nc2ccc(C(=O)O)cc2)CC[C@]2(CO2)[C@H]1[C@@]1(C)O[C@@H]1CC=C(C)C [Compound 9, 4-(((((3R,4S,5S,6R)-5-methoxy-4-((2R,3R)-2-methyl-3-(3-methylbut-2-en-1-yl)oxiran-2-yl)-1-oxaspiro[2.5]octan-6-yl)oxy)carbonyl)amino)benzoic acid]
time plasma concentration remained detectable ([2]; 6.6 mg/kg oral bolus): 8 h | maximum plasma concentration ([2]; 6.6 mg/kg oral bolus, C57BL/6 female mice): ~92 ng/mL | time point of maximum plasma concentration ([2]; 6.6 mg/kg oral bolus, earliest time point): 15 min | half-life ([2]; mouse, iv, 2 mg/kg i.v., plasma, C57BL/6 female mice, read-out: calculated half-life): 7.2 min | concentration at 5 min ([2]; mouse, plasma, intravenous, 2 mg/kg i.v. bolus, C57BL/6 female mice, read-out: plasma concentration at the 5-min time point): ~136 ng/mL | concentration at 1 h ([2]; mouse, plasma, intravenous, 2 mg/kg i.v. bolus, C57BL/6 female mice, read-out: plasma concentration by 1 h after dosing (below limit of quantification)): < 5 ng/mL | LD50 at 5 days ([3]; female, C57BL/6, mouse, po): > 2000 mg/kg | MTD at 5 days ([3]; female, C57BL/6, mouse, po): 1500 mg/kg | histopathology of liver, heart, brain, lung, spleen ([3]; mouse): normal tissue with no significant changes compared with the control tissues | mortality ([3]; mouse): two mice died unexpectedly | reduced body weight on day 3 ([3]; mouse): ~15% | weight change and clinical signs ([3]; mouse): no weight change and no negative clinical signs

CO[C@@H]1[C@H](OC(=O)/C=C/C=C/C=C/C=C/C(=O)O)CC[C@]2(CO2)[C@H]1[C@@]1(C)O[C@@H]1CC=C(C)C [Fumagillin, reference compound]
Mean ± SE degradation at 4 wk and 37°C, 75% humidity [4]: 30.37 ± 1.12% | Mean ± SE degradation at 4 wk and 37°C, 75% humidity ([4]; listed as fumagillin): 30.37% | Mean ± SE degradation at 4 wk and 37°C, uncontrolled humidity [4]: 20.22 ± 3.90% | Mean ± SE degradation at 4 wk and 37°C, uncontrolled humidity ([4]; listed as fumagillin): 20.22% | IC50 [5]: 2 nM | IC50 [6]: 10 nM | MLC, GS strain [7]: 0.26 µM (≈ 0.119 µg/mL)
